Measured values taken from patent publication US20230340498A1, “COMPOSITIONS AND METHODS FOR INDUCIBLE ALTERNATIVE SPLICING REGULATION OF GENE EXPRESSION” (The Children's Hospital of Philadelphia, priority 2020, published 2023).

How the values were obtained:
HEK293 cells [1] = test: Differential gene expression analysis (DESeq2) of LMI070 vs DMSO treated HEK293 cells; format: cell-based, Human
Protocol: Differential gene expression analysis was performed using DESeq2 to compare samples from the LMI070 and DMSO conditions (Love et al., 2014). To visualize the abundance of meaningfully differentially expressed genes, a volcano plot was generated with a .05 Benjamini-Hochberg adjusted p-value threshold and a 0.1 log fold change threshold.
The pseudoexons identified in LMI070 treated samples share a strong 3′ AGAGUA motif consistent with the previously identified U1 RNA binding site targeted by LMI070 (FIG. 2C) (Cheung et al., 2018). To experimentally validate the identified LMI070 induced splicing events, primer pairs binding the flanking exons of the top 5 candidate genes (FIGS. 2A and 2F-2J) were generated. […] The impact of LMI070 treatment on global gene expression was evaluated by assessing differential expression analysis.

SMN2 exon 7 = test: SMN2-on cassette exon 7 splicing assay (RT-PCR) in transfected HEK293 cells; format: cell-based, Human; settings: LMI070 compared with RG7800
Protocol: Cell culture, transfection, and LMI070/RG7800 treatment. Human embryonic kidney (HEK293) cells (obtained from CHOP Research Vector Core stock) were maintained in DMEM media containing 10% Fetal Bovine Serum (FBS), 1% L-Glutamine and 1% penicillin/streptomycin at 37° C. with 5% CO2. Cells were cultured in 24 well plates and transfected at 80-90% confluence using Lipofectamine 2000 transfection reagent, according to the manufacturer’s protocol. For all experiments, 4 hours after plasmid transfection, cells were treated with LMI070 (MedChemExpress, HY-19620, suspended in DMSO) or RG7800 (MedChemExpress, HY-101792A, suspended in H2O) at the indicated concentrations. Cells were tested for mycoplasma by Research Vector Core. […]
RNA extraction, RT-PCR, and Splicing assays. […] To determine HTT expression levels after transfection, RNA samples were quantified by spectrophotometry and subsequently cDNAs generated from […] of total RNA with random hexamers (TaqMan RT reagents, Applied Biosystems). […] Relative HTT gene expression was determined using the ddCt method. […] Splicing was determined by PCR using the Phusion High-Fidelity polymerase (Thermofisher) and PCR products separated on a 2.5% agarose gel pre-stained with EtBr and spliced-in and spliced-out band densitometry performed using with the ChemiDoc Imaging System (BioRad) and Image Lab analysis software. […]

HEK293 cells [2] = test: PCR validation of LMI070-induced novel exons with primers binding the flanking exons; format: cell-based, Human; settings: top 5 candidate genes; cDNA from HEK293 cells treated with LMI070 vs DMSO
Protocol: RNA extraction, RT-PCR, and Splicing assays. Total RNA was extracted using Trizol (Life Technologies) according to the manufacturer’s protocol, with the exception of 1 µL Glycoblue (Life Technologies) in addition to the aqueous phase on the isopropanol precipitation step and a single wash with cold 70% ethanol. To determine HTT expression levels after transfection, RNA samples were quantified by spectrophotometry and subsequently cDNAs generated from […] of total RNA with random hexamers (TaqMan RT reagents, Applied Biosystems). […] Relative HTT gene expression was determined using the ddCt method. […] Splicing was determined by PCR using the Phusion High-Fidelity polymerase (Thermofisher) and PCR products separated on a 2.5% agarose gel pre-stained with EtBr and spliced-in and spliced-out band densitometry performed using with the ChemiDoc Imaging System (BioRad) and Image Lab analysis software. Splicing induction from mouse tissues was determined using two custom TaqMan assays designed to determine total or LMI070-spliced in mRNA transcripts. The percentage of induction was determined by dividing the average Ct novel exon and average Ct Total, relative to control animals injected with AAV virus plus vehicle. […]

AAV9.X^on.eGFP = test: In vivo induction of AAV9.X^on.eGFP in mice by oral LMI070
Protocol: Animals and histology. Animal protocols were approved by The Children’s Hospital of Philadelphia Institutional Animal Care and Use Committee. Five to six-week-old male C57Bl6/j mice were obtained from Jackson Laboratories (Bar Harbor, ME, USA). AAV vectors (AAV9. X^on.eGFP or AAVPHBeB.X^on.eGFP; generated at the CHOP Research Vector Core) were administrated by retroorbital injection at 7-8 weeks of age with a total of 3E11 vg in 150 µL infused. After 4 weeks, a single dose of LMI070 (5 or 50 mg/kg, MedChemExpress HY-19620) or vehicle solution was administrated by oral gavage. After 18-24 h, mice used for biochemical or molecular studies were anesthetized and perfused with 0.9% cold saline mixed with 2-ml RNAlater (Ambion) solution. Brains and liver samples were collected, flash frozen in liquid nitrogen, and stored at -80 C until use. For immunohistochemistry studies, mice were perfused with 15 mL ice-cold 0.1 M PBS followed by 15 mL 4% paraformaldehyde. For brain sections, eGFP visualization was done by IHC using rabbit anti-GFP antibody (Invitrogen, 1:200) followed by Alexa488-conjugated goat anti-rabbit (Invitrogen, 1:500) and Alexa488-conjugated chicken anti-goat (Invitrogen, 1:500). Slices were mounted on Superfrost plus slides and coverslips mounted using fluoro-gel mounting media. Sections were analyzed using a DM6000B Leica microscope equipped with a L5 ET filter cube (ex:em of 470±20:525±15 nm and dichroic 495 nm), a 20X HC APO PLAN (N.A. 0.70) lens connected to a Sola Light Engine LED light source (Lumencor). Images were collected with a Hammatsu Orca flash4.0 monochrome camera controlled by Leica LAS X (v.3.0.3) software. Brain images represent a 7.98 µm thick z-stack deconvoluted by 3 iterations of the Blind algorithm.
RNA extraction, RT-PCR, and Splicing assays. Total RNA was extracted using Trizol (Life Technologies) according to the manufacturer’s protocol, with the exception of 1 µL Glycoblue (Life Technologies) in addition to the aqueous phase on the isopropanol precipitation step and a single wash with cold 70% ethanol. To determine HTT expression levels after transfection, RNA samples were quantified by spectrophotometry and subsequently cDNAs generated from […] of total RNA with random hexamers (TaqMan RT reagents, Applied Biosystems). To determine human HTT expression levels in HEK293 cells, we used TaqMan probes for human HTT and glyceraldehyde 3-phosphate dehydrogenase (GAPDH) mRNAs obtained from Applied Biosystems. Relative HTT gene expression was determined using the ddCt method. To determine splicing of the SMN2-on and Xon switches, 2 µg of total RNA from HEK293 cells or tissue samples was treated with DNAseI Free kit (Thermofisher) followed by cDNA generation using the High capacity cDNA kit (Thermofisher). Splicing was determined by PCR using the Phusion High-Fidelity polymerase (Thermofisher) and PCR products separated on a 2.5% agarose gel pre-stained with EtBr and spliced-in and spliced-out band densitometry performed using with the ChemiDoc Imaging System (BioRad) and Image Lab analysis software. Splicing induction from mouse tissues was determined using two custom TaqMan assays designed to determine total or LMI070-spliced in mRNA transcripts. The percentage of induction was determined by dividing the average Ct novel exon and average Ct Total, relative to control animals injected with AAV virus plus vehicle.
Western Blots. HEK293 cells were rinsed and lysed with Passive Lysis Buffer (PBL, Promega), protein concentrations determined using the DC protein assay (Bio-Rad), and 10-20 µg of protein loaded on a 3%-8% NuPAGE Tris-Acetate Gel in tris-acetate buffer (Novex Life Technologies) or a 4-12% NuPAGE TrisBis NuPAGE gels in MES buffer (Novex Life Technologies) to determine HTT, SaCas9, or eGFP protein levels, respectively, with β-catenin as loading control. […]

[3] = p < 0.05, Benjamin-Hochberg correction, LMI070 vs DMSO
[4] = spliced expression cassette relative to vehicle, LMI070 50 mg/kg

## CC1(C)CC(Oc2ccc(-c3ccc(-c4cn[nH]c4)cc3O)nn2)CC(C)(C)N1 [LMI070, 5-(1H-Pyrazol-4-yl)-2-(6-((2,2,6,6-tetramethylpiperidin-4-yl)oxy)pyridazin-3-yl)phenol]
HEK293 cells [1]; filtered <0.1 fold
  downregulated genes after filtering out low fold-change values: 9
  upregulated genes after filtering out low fold-change values: 5
HEK293 cells [1]; [3]
  downregulated genes passing the threshold for significance: 24
  upregulated genes passing the threshold for significance: 6
SMN2 exon 7
  relative activity in the setting of the SMN2-on cassette: more active than RG7800
HEK293 cells [2]
  amplification of the novel exons by PCR: Robust amplification
AAV9.X^on.eGFP; AAV9.X^on.eGFP 3E11 vg/mouse IV, single dose LMI070 5 or 50 mg/kg, 24 h later
  eGFP expression in sections from liver: notable eGFP expression
AAV9.X^on.eGFP; LMI070 50 mg/kg oral, second dose after one week washout, histology, western blot, splicing assay
  induction in liver after repeat dosing: evident in liver after the first and the second dose
AAV9.X^on.eGFP; LMI070 50 mg/kg oral, histology and splicing assay
  induction in skeletal muscle and heart: notable
AAV9.X^on.eGFP; liver, LMI070 5 or 50 mg/kg
  protein levels and novel exon splicing versus dose: directly correlated to the LMI070 dose
AAV9.X^on.eGFP; [4]
  relative level of induction in heart: ~ 3000 fold
  relative level of induction in liver: ~1000 fold
